The values below come from patent US11312712B2, “Azabenzimidazoles and their use as AMPA receptor modulators” (Janssen Pharmaceutica NV, priority 2015, dated 2022).

SMILES strings stand for the structures.

This experiment deals with GluA1o-γ8 (GRIA1o-CACNG8 fusion construct) (Homo sapiens (Human), UniProt P42261+Q8WXS5). The experiment in a line: Calcium flux assay (FLIPR), inhibition of TARP γ8 dependent AMPA receptor activity. Type of experiment: cell-based. The following applies: GluA1o-γ8 (GRIA1o-CACNG8 fusion) in HEK293 cells, calcium flux after 15 μM glutamate. In short, it runs like this:
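Glutamate (15 μM) was added to a stable HEK293 line carrying the GluA1o–γ8 fusion, which had been preincubated with compound and calcium dye in HEPES buffer, pH 7.4. Normalized FLIPR fluorescence (no compound vs 10 μM CP465022) was fitted with four parameters; pIC50 is the midpoint's negative log.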

Chain of GluA1o-γ8 (GRIA1o-CACNG8 fusion construct) (P42261 other isoform, or with tags, fused parts or gaps): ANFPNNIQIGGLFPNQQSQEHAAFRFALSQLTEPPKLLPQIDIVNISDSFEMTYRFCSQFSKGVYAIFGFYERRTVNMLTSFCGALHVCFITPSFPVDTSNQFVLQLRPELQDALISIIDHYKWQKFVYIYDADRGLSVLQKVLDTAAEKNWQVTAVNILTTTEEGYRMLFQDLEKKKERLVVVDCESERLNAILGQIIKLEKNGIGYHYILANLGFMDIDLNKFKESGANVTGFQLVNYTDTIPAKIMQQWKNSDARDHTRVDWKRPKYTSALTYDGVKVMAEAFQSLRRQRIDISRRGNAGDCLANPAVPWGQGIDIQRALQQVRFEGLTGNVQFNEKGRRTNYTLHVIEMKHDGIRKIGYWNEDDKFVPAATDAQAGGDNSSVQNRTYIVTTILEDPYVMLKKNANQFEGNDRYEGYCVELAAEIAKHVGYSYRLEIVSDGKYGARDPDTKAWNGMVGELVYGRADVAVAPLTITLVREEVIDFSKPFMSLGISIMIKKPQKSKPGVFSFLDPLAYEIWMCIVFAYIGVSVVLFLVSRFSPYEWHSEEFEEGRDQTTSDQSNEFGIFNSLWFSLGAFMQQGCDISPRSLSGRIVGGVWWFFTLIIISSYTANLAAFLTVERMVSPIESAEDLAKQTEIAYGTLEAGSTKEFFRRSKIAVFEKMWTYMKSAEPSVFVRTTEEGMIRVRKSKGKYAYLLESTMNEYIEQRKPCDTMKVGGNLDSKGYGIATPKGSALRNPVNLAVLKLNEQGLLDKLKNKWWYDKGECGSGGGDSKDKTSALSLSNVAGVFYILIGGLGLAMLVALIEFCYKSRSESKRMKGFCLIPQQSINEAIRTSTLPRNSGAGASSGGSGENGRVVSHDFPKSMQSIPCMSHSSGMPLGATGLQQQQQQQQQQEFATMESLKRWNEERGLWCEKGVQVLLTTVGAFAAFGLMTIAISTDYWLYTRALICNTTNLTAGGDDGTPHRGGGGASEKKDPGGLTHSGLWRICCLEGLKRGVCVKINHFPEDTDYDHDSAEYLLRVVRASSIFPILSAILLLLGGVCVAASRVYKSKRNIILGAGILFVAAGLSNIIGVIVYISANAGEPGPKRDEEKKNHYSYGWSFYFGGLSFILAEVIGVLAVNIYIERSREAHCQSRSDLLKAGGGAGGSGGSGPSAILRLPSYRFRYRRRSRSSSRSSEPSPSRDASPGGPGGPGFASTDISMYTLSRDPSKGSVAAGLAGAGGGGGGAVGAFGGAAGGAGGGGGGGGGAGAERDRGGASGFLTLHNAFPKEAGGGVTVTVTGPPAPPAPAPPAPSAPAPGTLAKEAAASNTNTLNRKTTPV

As to `O=c1[nH]c2ccc(-n3c(C(F)(F)C(F)(F)F)nc4ccc(C(F)(F)F)nc43)cc2s1` [Example 233, 6-[2-(1,1,2,2,2-Pentafluoroethyl)-5-(trifluoromethyl)imidazo[4,5-b]pyridin-3-yl]-3H-1,3-benzothiazol-2-one], the IC50 is 0.316 nM.

Turning to `O=c1[nH]c2ccc(-n3c(C(F)F)nc4ccc(C(F)(F)F)nc43)cc2s1` [Example 234, 6-[2-(Difluoromethyl)-5-(trifluoromethyl)imidazo[4,5-b]pyridin-3-yl]-3H-1,3-benzothiazol-2-one], the IC50 was 0.0794 nM.

As to `O=c1[nH]c2ccc(-n3c(C(F)F)nc4ccc(C(F)(F)F)nc43)cc2o1` [Example 235, 6-[2-(Difluoromethyl)-5-(trifluoromethyl)imidazo[4,5-b]pyridin-3-yl]-3H-1,3-benzoxazol-2-one], the IC50 is 63.1 nM.

For `O=c1[nH]c2ccc(-n3c(C(F)(F)F)nc4ccc(C(F)(F)F)nc43)cc2o1` [Example 236, 6-[2,5-Bis(trifluoromethyl)imidazo[4,5-b]pyridin-3-yl]-3H-1,3-benzoxazol-2-one], the IC50 is 6.31 nM.

`Fc1n[nH]c2ccc(-n3c(C(F)(F)F)nc4ccc(C(F)(F)F)nc43)cc12` [Example 237, 3-(3-Fluoro-1H-indazol-5-yl)-2,5-bis(trifluoromethyl)imidazo[4,5-b]pyridine]: the IC50 was 2.51 nM.

With `FC(F)c1ccc2nc(C(F)(F)F)n(-c3ccc4[nH]ncc4c3)c2n1` [Example 238, 5-(Difluoromethyl)-3-(1H-indazol-5-yl)-2-(trifluoromethyl)imidazo[4,5-b]pyridine], the IC50 was 0.398 nM.

As for `COc1nc2ccc(C(F)(F)F)nc2n1-c1ccc2[nH]c(=O)sc2c1` [Example 239, 6-[2-Methoxy-5-(trifluoromethyl)imidazo[4,5-b]pyridin-3-yl]-3H-1,3-benzothiazol-2-one], the IC50 is 2 nM.

On to `CCOc1nc2ccc(C(F)(F)F)nc2n1-c1ccc2[nH]c(=O)sc2c1` [Example 240, 6-[2-Ethoxy-5-(trifluoromethyl)imidazo[4,5-b]pyridin-3-yl]-3H-1,3-benzothiazol-2-one], for which the IC50 was 1 nM.

`COc1nc2ccc(C(F)(F)F)nc2n1-c1cc(C)c2[nH]ncc2c1` [Example 241, 2-Methoxy-3-(7-methyl-1H-indazol-5-yl)-5-(trifluoromethyl)imidazo[4,5-b]pyridine]: the IC50 is 0.398 nM.

With `CCOc1nc2ccc(C(F)(F)F)nc2n1-c1cc(C)c2[nH]ncc2c1` [Example 242, 2-Ethoxy-3-(7-methyl-1H-indazol-5-yl)-5-(trifluoromethyl)imidazo[4,5-b]pyridine], the IC50 is 0.398 nM.

`CCOc1nc2ccc(C(F)(F)F)nc2n1-c1ccc2c(c1)CC(=O)N2` [Example 243, 5-[2-Ethoxy-5-(trifluoromethyl)imidazo[4,5-b]pyridin-3-yl]indolin-2-one]: the IC50 was 15.8 nM.

As for `COc1nc2ccc(C(F)(F)F)nc2n1-c1ccc2c(c1)CC(=O)N2` [Example 244, 5-[2-Methoxy-5-(trifluoromethyl)imidazo[4,5-b]pyridin-3-yl]indolin-2-one], the IC50 is 39.8 nM.

In the case of `CS(=O)(=O)Cc1nc2ccc(C(F)(F)F)nc2n1-c1ccc2[nH]ncc2c1` [Example 245, 3-(1H-indazol-5-yl)-2-(methylsulfonylmethyl)-5-(trifluoromethyl)imidazo[4,5-b]pyridine], the IC50 is 316 nM.

`Cc1cc(-n2c3nc(C(F)(F)F)ccc3nc2[C@H]2C[C@@H](F)C2)cc2cn[nH]c12` [Example 246, 2-(3-Fluorocyclobutyl)-3-(7-methyl-1H-indazol-5-yl)-5-(trifluoromethyl)imidazo[4,5-b]pyridine]: the IC50 is 0.126 nM.

Turning to `Cc1cc(-n2c3nc(C(F)(F)F)ccc3nc2[C@H]2C[C@H](F)C2)cc2cn[nH]c12` [Example 247, 2-(3-Fluorocyclobutyl)-3-(7-methyl-1H-indazol-5-yl)-5-(trifluoromethyl)imidazo[4,5-b]pyridine], the IC50 is 0.0631 nM.

Turning to `FC(F)(F)c1ccc2nc([C@H]3C[C@@H](F)C3)n(-c3cc(Cl)c4[nH]ncc4c3)c2n1` [Example 248, 3-(7-Chloro-1H-indazol-5-yl)-2-(3-fluorocyclobutyl)-5-(trifluoromethyl)imidazo[4,5-b]pyridine], the IC50 was 0.158 nM.

Consider `Cc1ccc2nc([C@H]3C[C@H](F)C3)n(-c3cc(Cl)c4[nH]ncc4c3)c2n1` [Example 249, 3-(7-Chloro-1H-indazol-5-yl)-2-(3-fluorocyclobutyl)-5-methyl-imidazo[4,5-b]pyridine], for which the concentration for half-maximal inhibition (IC50) was 0.501 nM.

On to `FC(F)(F)c1ccc2nc([C@H]3C[C@H](F)C3)n(-c3cc(Cl)c4[nH]ncc4c3)c2n1` [Example 250, 3-(7-Chloro-1H-indazol-5-yl)-2-(3-fluorocyclobutyl)-5-(trifluoromethyl)imidazo[4,5-b]pyridine], for which the IC50 was 0.0316 nM.

For the compound `COC(C)(C)c1nc2ccc(C(F)(F)F)nc2n1-c1cc(C)c2[nH]ncc2c1` [Example 251, 2-(1-Methoxy-1-methyl-ethyl)-3-(7-methyl-1H-indazol-5-yl)-5-(trifluoromethyl)imidazo[4,5-b]pyridine], the IC50 was 2.51 nM.

As for `Cc1cc(-n2c(C(C)(F)F)nc3ccc(C(F)(F)F)nc32)cc2cn[nH]c12` [Example 252, 2-(1,1-Difluoroethyl)-3-(7-methyl-1H-indazol-5-yl)-5-(trifluoromethyl)imidazo[4,5-b]pyridine], the IC50 was 0.158 nM.

`Cc1cc(-n2c(C(C)(C)F)nc3ccc(C(F)(F)F)nc32)cc2cn[nH]c12` [Example 253, 2-(1-Fluoro-1-methyl-ethyl)-3-(7-methyl-1H-indazol-5-yl)-5-(trifluoromethyl)imidazo[4,5-b]pyridine]: the IC50 is 0.2 nM.

In the case of `CC(C)(F)c1nc2ccc(C(F)(F)F)nc2n1-c1cc(Cl)c2[nH]ncc2c1` [Example 254, 3-(7-Chloro-1H-indazol-5-yl)-2-(1-fluoro-1-methyl-ethyl)-5-(trifluoromethyl)imidazo[4,5-b]pyridine], the IC50 was 0.0631 nM.

`Cc1cc(-n2c(C3CC3)nc3ccc(C(F)(F)F)nc32)cc2cn[nH]c12` [Example 255, 2-Cyclopropyl-3-(7-methyl-1H-indazol-5-yl)-5-(trifluoromethyl)imidazo[4,5-b]pyridine]: the IC50 was 0.0316 nM.

For `FC(F)(F)c1ccc2nc(C3(F)CC3)n(-c3cc(Cl)c4[nH]ncc4c3)c2n1` [Example 258, 3-(7-Chloro-1H-indazol-5-yl)-2-(1-fluorocyclopropyl)-5-(trifluoromethyl)imidazo[4,5-b]pyridine], the IC50 was 0.0631 nM.

Turning to `Cc1cc(-n2c(C3(F)CC3)nc3ccc(C(F)(F)F)nc32)cc2cn[nH]c12` [Example 259, 2-(1-Fluorocyclopropyl)-3-(7-methyl-1H-indazol-5-yl)-5-(trifluoromethyl)imidazo[4,5-b]pyridine], the IC50 is 0.0794 nM.

`Cc1cc(-n2c(-c3ccnc(F)c3)nc3ccc(C(F)F)nc32)cc2cn[nH]c12` [Example 263, 5-(Difluoromethyl)-2-(2-fluoro-4-pyridyl)-3-(7-methyl-1H-indazol-5-yl)imidazo[4,5-b]pyridine]: the IC50 is 0.158 nM.

As for `Fc1cc(-c2nc3ccc(C(F)F)nc3n2-c2cc(Cl)c3[nH]ncc3c2)ccn1` [Example 264, 3-(7-Chloro-1H-indazol-5-yl)-5-(difluoromethyl)-2-(2-fluoro-4-pyridyl)imidazo[4,5-b]pyridine], the IC50 was 0.1 nM.

`FC(F)(F)c1ccc2nc(C(F)(F)F)n(-c3cc(Cl)c4cn[nH]c4c3)c2n1` [Example 265, 3-(4-Chloro-1H-indazol-6-yl)-2,5-bis(trifluoromethyl)imidazo[4,5-b]pyridine]: the IC50 was 126 nM.

`CC(F)(F)c1nc2ccc(C(F)(F)F)nc2n1-c1ccc2[nH]c(=O)sc2c1` [Example 266, 6-[2-(1,1-Difluoroethyl)-5-(trifluoromethyl)imidazo[4,5-b]pyridin-3-yl]-3H-1,3-benzothiazol-2-one]: the IC50 is 0.1 nM.

On to `CC(F)(F)c1nc2ccc(C(F)(F)F)nc2n1-c1cc(Cl)c2[nH]ncc2c1` [Example 267, 3-(7-Chloro-1H-indazol-5-yl)-2-(1,1-difluoroethyl)-5-(trifluoromethyl)imidazo[4,5-b]pyridine], for which the IC50 was 0.0158 nM.

As for `Cc1ccc2nc(C(F)(F)F)n(-c3cc(Cl)c4[nH]ncc4c3)c2n1` [Example 268, 3-(7-Chloro-1H-indazol-5-yl)-5-methyl-2-(trifluoromethyl)imidazo[4,5-b]pyridine], the IC50 was 0.0631 nM.

As for `CC(C)c1nc2ccc(C(F)F)nc2n1-c1cc(Cl)c2[nH]ncc2c1` [Example 269, 3-(7-Chloro-1H-indazol-5-yl)-5-(difluoromethyl)-2-isopropyl-imidazo[4,5-b]pyridine], the IC50 was 0.0316 nM.

In the case of `FC(F)(F)c1ccc2nc(C(F)(F)F)n(-c3cc(Cl)c4[nH]ncc4c3)c2n1` [Example 270, 3-(7-Chloro-1H-indazol-5-yl)-2,5-bis(trifluoromethyl)imidazo[4,5-b]pyridine], the IC50 is 0.02 nM.

Consider `O=C1Cc2cc(-n3c(C(F)(F)F)nc4ccc(C(F)(F)F)nc43)cc(Cl)c2N1` [Example 271, 5-[2,5-Bis(trifluoromethyl)imidazo[4,5-b]pyridin-3-yl]-7-chloro-indolin-2-one], for which the IC50 is 0.2 nM.

As for `O=C1Cc2cc(-n3c(C(F)F)nc4ccc(C(F)(F)F)nc43)cc(Cl)c2N1` [Example 272, 7-Chloro-5-[2-(difluoromethyl)-5-(trifluoromethyl)imidazo[4,5-b]pyridin-3-yl]indolin-2-one], the IC50 was 0.2 nM.

As to `Cc1cc(-n2c(C(C)C)nc3ccc(C(F)F)nc32)cc2cn[nH]c12` [Example 273, 5-(Difluoromethyl)-2-isopropyl-3-(7-methyl-1H-indazol-5-yl)imidazo[4,5-b]pyridine], the IC50 was 0.0631 nM.
